Reference: patent publication US20130172308A1, “ANTIMICROBIAL AGENTS” (John Grant COLLINS, priority 2011, published 2013)

What was measured:
S. aureus ATCC 25923 = assay: MIC determination, broth micro-dilution (CAMHB); format: cell-based, Staphylococcus aureus; settings: Table 1; 37° C., 24 h
Protocol: (§1) Four strains of bacteria were chosen for the susceptibility tests: S. aureus ATCC 25923; MRSA (a wild clinical strain from the JCU culture collection); E. coli ATCC 25922 and P. aeruginosa ATCC 27853. The bacteria were grown on Mueller Hinton agar (OXOID, cat. No. CM0337) and suspended in growth medium cation-adjusted Mueller Hinton broth (CAMHB, OXOID, cat. No. CM0405). The MIC of each complex was determined in duplicate by standard micro-dilution methodology (British Society for Antimicrobial Chemotherapy Working Party, J. Antimicrob. Chemother., 1991, 27(suppl. D), 22) using gentamicin as the positive control. The ruthenium complexes were dissolved in CAMHB to a stock solution of […] and two-fold diluted in the broth in 96-well plates in a final volume of […] in each well. The same volume […] of bacterial suspension was added in each well making a concentration range of 0.25 mg ml^−1 to 128 mg ml^−1 for each complex. The plates were incubated at 37° C. for 24 h. The results are summarised in Table 1 below, using the following abbreviations: • Rubpm=ΔΔ-[{Ru(phen)2}2(μ-2,2′-bipyrimidine)]Cl4 • Rudppm=ΔΔ-[{Ru(phen)2}2(μ-4,6-bis(2-pyridyl)pyrimidine)]Cl4 • Rubb7trinuclear=Δ*Δ*-[{Ru*(phen)2}(μ-bb7){Ru(phen)}(μ-bb7){Ru*(phen)2}]Cl6 (only the two terminal metal centres are chiral, the two central metal centres are racemic) • Rubb7tetranuclear=Δ*Δ*-[{Ru*(phen)2}(μ-bb7) {Ru(phen)}(μ-bb7){Ru(phen)}(μ-bb7)-{Ru*(phen)2}]Cl8 (only the two terminal metal centres are chiral, the two central metal centres are racemic)
(§2) Further MIC assays and Minimum Bactericidal Concentration (MBC) assays were conducted against Gram-positive and Gram-negative bacterial strains using symmetric and non-symmetric, inert and labile complexes.

[1] = system: MRSA (a wild clinical strain from the JCU culture collection); assay: MIC determination, broth micro-dilution (CAMHB); format: cell-based, methicillin-resistant S. aureus; settings: Table 1; 37° C., 24 h
Protocol: as §1, §2

E. coli ATCC 25922 = assay: MIC determination, broth micro-dilution (CAMHB); format: cell-based, Escherichia coli; settings: Table 1; 37° C., 24 h
Protocol: as §1, §2

P. aeruginosa ATCC 27853 = assay: MIC determination, broth micro-dilution (CAMHB); format: cell-based, Pseudomonas aeruginosa; settings: Table 1; 37° C., 24 h
Protocol: as §1, §2

[2] = format: physicochemical; settings: pH 7.4
Protocol: The primary difference between the members of the Rubbn family of complexes is the number of methylene groups in the flexible linking chain. […] Lipophilicity is a significant factor affecting the biological activity of most therapeutic compounds, as it relates to the capacity of the drug to penetrate through the cell membrane. The standard octanol-water partition coefficient (logP) was determined for the Rubbn series (F. Lombardo, B. Faller, M. Shalaeva, I. Tetko and S. Tilton, Methods and Principles in Medicinal Chemistry, 2008, 37, 407) parent model mononuclear species ([Ru(phen)2(Me2bpy)]^2+) and the trinuclear and tetranuclear complexes.
The partition coefficients (logP) were measured using the shake flask technique: each ruthenium complex (at both 0.05 and 0.1 mM) was dissolved in the water phase (0.2 M Na2HPO4—NaH2PO4 buffer, pH=7.4) and an equivalent volume of n-octanol was added.
The two phases were mutually saturated by shaking overnight at ambient temperature and then were allowed to separate on standing. The concentration of the metal complex in each phase was determined spectrophotometrically at l=450 nm.

Row | Compound | MIC S. aureus (S. aureus ATCC 25923) [µg/mL] | MIC MRSA [1] [µg/mL] | MIC E. coli (E. coli ATCC 25922) [µg/mL] | MIC P. aeruginosa (P. aeruginosa ATCC 27853) [µg/mL] | logP [2]
1 | Cc1ccnc(-c2cc(CCCCCCCc3cc[n+]4c(c3)-c3cc(C)cc[n+]3[Ru-4]435([n+]4cccc6ccc7ccc[n+]3c7c64)[n+]3cccc4ccc6ccc[n+]5c6c43)ccn2)c1 [Rubb7mono, Δ-[Ru(phen)2(bb7)]^2+] | 4 | 16 | 16 | 32 | −0.7
2 | [{Ru(phen)2}2(μ-bb5)](PF6)4 [Rubb5] | – | – | – | – | −3.5
3 | Cc1cc[n+]2c(c1)-c1cc(CCc3cc[n+]4c(c3)-c3cc(C)cc[n+]3[Ru-4]435([n+]4cccc6ccc7ccc[n+]3c7c64)[n+]3cccc4ccc6ccc[n+]5c6c43)cc[n+]1[Ru-4]213([n+]2cccc4ccc5ccc[n+]1c5c42)[n+]1cccc2ccc4ccc[n+]3c4c21 [Rubb2, [{Ru(phen)2}2(μ-bb2)]^4+] | – | – | – | – | −3.6
4 | Cc1cnc2c(ccc3c(C)c(C)cnc32)c1C.Cc1cnc2c(ccc3c(C)c(C)cnc32)c1C.Cc1cnc2c(ccc3c(C)c(C)cnc32)c1C.[Ru+2] [[Ru(Me4phen)3]^2+, reference compound] | 0.5 | 4 | 8 | 32 | –
5 | ΔΔ-[{Ru(phen)2}2(μ-bbN7)] [ΔΔ-RubbN7] | >128 | >128 | >128 | >128 | –
6 | ΔΔ-[{Ru(phen)2}2(μ-bbN12)]Cl4 [ΔΔ-RubbN12] | 128 | 128 | 128 | >128 | –
7 | Cc1ccnc(-c2cc(CCCCCCCCCCc3ccnc(-c4cc(C)ccn4)c3)ccn2)c1.F[P-](F)(F)(F)(F)F.F[P-](F)(F)(F)(F)F.F[P-](F)(F)(F)(F)F.F[P-](F)(F)(F)(F)F.[Ru+2].[Ru+2].c1cnc2c(c1)ccc1cccnc12.c1cnc2c(c1)ccc1cccnc12.c1cnc2c(c1)ccc1cccnc12.c1cnc2c(c1)ccc1cccnc12 [ΛΛ-Rubb10, [{Ru(phen)2}2(μ-bb10)](PF6)4] | 8 | 8 | 4 | 32 | –
8 | [Ru(Me2phen)3]^2+ [reference compound] | 8 | 128 | 128 | >128 | –
9 | [{Ru(phen)2}2(μ-bb5)](PF6)4 [ΔΔ-Rubb5] | 128 | 128 | 128 | >128 | –
10 | Δ-[Ru(phen)2(Me2bipy)](PF6)2 [[Ru(phen)2(Me2bpy)]^2+, reference compound] | 128 | >128 | >128 | >128 | −2.9
11 | Cc1cc[n+]2c(c1)-c1cc(CCc3cc[n+]4c(c3)-c3cc(C)cc[n+]3[Ru-4]435([n+]4cccc6ccc7ccc[n+]3c7c64)[n+]3cccc4ccc6ccc[n+]5c6c43)cc[n+]1[Ru-4]213([n+]2cccc4ccc5ccc[n+]1c5c42)[n+]1cccc2ccc4ccc[n+]3c4c21 [ΛΛ-Rubb2, [{Ru(phen)2}2(μ-bb2)]^4+] | >128 | >128 | – | >128 | –
12 | Cc1ccnc(-c2cc(CCCCCCCCCCCCCCCCc3ccnc(-c4cc(C)ccn4)c3)ccn2)c1.[Cl-].[Cl-].[Cl-].[Cl-].[Ru+2].[Ru+2].c1cnc2c(c1)ccc1cccnc12.c1cnc2c(c1)ccc1cccnc12.c1cnc2c(c1)ccc1cccnc12.c1cnc2c(c1)ccc1cccnc12 [ΛΛ-Rubb16, [{Ru(phen)2}2(μ-bb16)]Cl4] | 1 | 1 | 4 | 8 | –
13 | Cc1cc[n+]2c(c1)-c1cc(CCCCCCCc3cc[n+]4c(c3)-c3cc(C)cc[n+]3[Ru-4]435([n+]4cccc6ccc7ccc[n+]3c7c64)[n+]3cccc4ccc6ccc[n+]5c6c43)cc[n+]1[Ru-4]213([n+]2cccc4ccc5ccc[n+]1c5c42)[n+]1cccc2ccc4ccc[n+]3c4c21.F[P-](F)(F)(F)(F)F.F[P-](F)(F)(F)(F)F.F[P-](F)(F)(F)(F)F.F[P-](F)(F)(F)(F)F [ΛΛ-Rubb7, [{Ru(phen)2}2(μ-bb7)](PF6)4] | 64 | 32 | 16 | 64 | –
14 | [{Ru(phen)2}2(μ-bb5)](PF6)4 [ΛΛ-Rubb5] | 128 | 128 | 64 | 128 | –
15 | Cc1cc[n+]2c(c1)-c1cc(CCCCCCCCCCCCCCc3cc[n+]4c(c3)-c3cc(C)cc[n+]3[Ru-4]435([n+]4cccc6ccc7ccc[n+]3c7c64)[n+]3cccc4ccc6ccc[n+]5c6c43)cc[n+]1[Ru-4]213([n+]2cccc4ccc5ccc[n+]1c5c42)[n+]1cccc2ccc4ccc[n+]3c4c21.[Cl-].[Cl-].[Cl-].[Cl-] [ΛΛ-Rubb14, [{Ru(phen)2}2(μ-bb14)]Cl4] | 1 | 1 | 2 | 8 | –
16 | Cc1ccnc(-c2cc(CCCCCCCCCCc3ccnc(-c4cc(C)ccn4)c3)ccn2)c1.F[P-](F)(F)(F)(F)F.F[P-](F)(F)(F)(F)F.F[P-](F)(F)(F)(F)F.F[P-](F)(F)(F)(F)F.[Ru+2].[Ru+2].c1cnc2c(c1)ccc1cccnc12.c1cnc2c(c1)ccc1cccnc12.c1cnc2c(c1)ccc1cccnc12.c1cnc2c(c1)ccc1cccnc12 [Rubb10, [{Ru(phen)2}2(μ-bb10)](PF6)4] | – | – | – | – | −3.3
17 | ΔΔ-[{Ru(phen)2}2(μ-bbO7)](PF6)4 [ΔΔ-RubbO7] | 128 | 128 | 128 | >128 | –
18 | ΔΔ-[{Ru(phen)2}2(μ-bb14)](PF6)4 [ΔΔ-Rubb14] | 1 | 1 | 4 | 8 | –
19 | Cc1cc[n+]2c(c1)-c1cc(CCCCCCCCCCCCCCc3cc[n+]4c(c3)-c3cc(C)cc[n+]3[Ru-4]435([n+]4cccc6ccc7ccc[n+]3c7c64)[n+]3cccc4ccc6ccc[n+]5c6c43)cc[n+]1[Ru-4]213([n+]2cccc4ccc5ccc[n+]1c5c42)[n+]1cccc2ccc4ccc[n+]3c4c21.[Cl-].[Cl-].[Cl-].[Cl-] [Rubb14, [{Ru(phen)2}2(μ-bb14)]Cl4] | – | – | – | – | −2.3
20 | Cc1cc[n+]2c(c1)-c1cc(CCc3cc[n+]4c(c3)-c3cc(C)cc[n+]3[Ru-4]435([n+]4cccc6ccc7ccc[n+]3c7c64)[n+]3cccc4ccc6ccc[n+]5c6c43)cc[n+]1[Ru-4]213([n+]2cccc4ccc5ccc[n+]1c5c42)[n+]1cccc2ccc4ccc[n+]3c4c21 [ΔΔ-Rubb2, [{Ru(phen)2}2(μ-bb2)]^4+] | – | – | >128 | – | –
21 | [Ru+2].c1cnc2c(c1)ccc1cccnc12.c1cnc2c(c1)ccc1cccnc12.c1cnc2c(c1)ccc1cccnc12 [[Ru(phen)3]^2+, reference compound] | >128 | >128 | >128 | >128 | –
22 | [{Ru(phen)2}2(μ-bb12)] [ΛΛ-Rubb12] | 2 | 2 | 2 | 16 | –
